Test results: patent publication US10351847B2, “Identification and display of peptide ligands” (OXFORD UNIVERSITY INNOVATION LIMITED, priority 2013, dated 2019)
“Also recorded” adds a separate entry of the source. Like-named read-outs stand apart in the source and are kept apart here. Ends that are not written are not given here. GS linker = not defined here

Tests used:
HIV-1 JRFL gp120 = assay: ELISA for binding between predicted peptides and gp120; details: compared to negative control HA2 (hemagglutinin-binding peptide)
purified gp120 = assay: Surface plasmon resonance (BIAcore) KD of peptides to gp120; type: binding, HIV-1
Procedure: Immobilisation of purified gp120 protein (1 mg/ml) and purified HLA-A2 heavy chain (reference control, 1 mg/ml) onto the surface of individual flow-cells (Fc1 and Fc2 respectively) of CM5 sensor chip (GE Healthcare) was performed under conditions of 20 μl/min flow rate and 25° C., with HBS-EP buffer (0.01 M HEPES pH 7.4, 0.15 M NaCl, 0.005% v/v Surfactant P20; GE Healthcare) as the running buffer. After initiating the system, 100 μl 0.05M solution of EDC [1-ethyl-3-(3-dimethylaminopropyl) carbodiimide]/NHS (N-Hydroxysuccinimide) at 1:1 ratio was injected to activate the dextran matrix of the sensor chip surface. After immobilisation, 150 μl of 1M ethanolamine hydrochloride was injected to deactivate the unreacted carboxylmethyl groups on the dextran matrix. Finally, 30 μl of Glycine pH2.5 was injected to remove any non-covalently bound proteins.
The affinity analyses of the interaction between 9-amino-acid predicted peptides and purified gp120 were performed using the BIAcore T200 (GE Healthcare), under conditions of 10 μl/min flow rate and 25° C. and using HBS-EP buffer (0.01 M HEPES pH 7.4, 0.15 M NaCl, 0.005% v/v Surfactant P20; GE Healthcare) as the running buffer. Prior to experiment, the 9-amino-acid peptides were diluted to 1 mg/ml with HBS-EP buffer. A 2-fold serial dilution of totally 8 concentrations was used to pass through the […]. The data were analysed using Microcal Origin version 7.5 (Microcal Software Limited).
In order to obtain quantitative measurements of binding reactions between predicted peptides and gp120, surface plasmon resonance (BIAcore) was used to measure the equilibrium dissociation constant KD of the predicted peptides and gp120. […] Since the KD to gp120 is relative to different analytes, purified protein HLA-A*0201 heavy chain was used as a reference control to measure the relative binding affinity of peptides to gp120. Purified gp120 and HLA-A*0201 were immobilised on chips, and the peptides were passed through both flow cells at a constant rate of 10 μl/min. […] The BIcore experiment acted as a second confirmation that the randomised peptide library had successfully captured peptides which bind to gp120 in a single round of selection, and that the sequence information coding the binding peptides was correctly preserved and sequenced.

[1] = test system: HIV-1 (HIV BAL, IIIB, clade C)
HIV-1 BaL = assay: HIV-1 inhibition assay (intracellular p24 in CD4+ cells of PBMC); details: for inhibition of HIV-1 BaL infection: without streptavidin conjugation
HIV-1 IIIB = assay: as above; type: cell-based; details: CXCR4 tropic virus
[2] = test system: JRFL gp120 / recombinant CCR5; type: binding, HIV-1; details: 125 ng peptide

CC(C)C[C@H](NC(=O)[C@H](CC(C)C)NC(=O)[C@H](CC(N)=O)NC(=O)[C@H](CC(C)C)NC(=O)[C@H](CCCNC(=N)N)NC(=O)[C@H](CCCNC(=N)N)NC(=O)[C@H](CS)NC(=O)[C@H](Cc1c[nH]c2ccccc12)NC(=O)[C@@H](N)CC(C)C)C(=O)NCC(=O)NCC(=O)NCC(=O)NCC(=O)NCC(=O)NCC(=O)N[C@@H](CO)C(=O)NCC(=O)NCC(=O)N[C@@H](CO)C(=O)NCC(=O)N[C@@H](CCCCNC(=O)CCCC[C@@H]1SC[C@@H]2NC(=O)N[C@@H]21)C(=O)O [GP16]
binding to gp120 on ELISA (absorbance) (HIV-1 JRFL gp120): significantly higher binding; also recorded: higher absorbance; also recorded: highest binding affinity
affinity to gp120 (ranking) (purified gp120): highest affinity
HIV-1 inhibition (in words) [1]: greatest inhibition
cross clade HIV-1 inhibitory activity [1]: exhibited cross clade HIV-1 inhibitory activity
reduction in absorbance of peptide binding to gp120 (gp120; gp120 blocked with any of the three antibodies (V3, VRC01, F105)): no reduction
inhibition of HIV-1 BaL infection (HIV-1 BaL; 50 μM): less than 1%
inhibition of HIV-1 BaL infection (HIV-1 BaL; 100 μM): less than 1%
inhibition of HIV-1 BaL infection (HIV-1 BaL; 250 μM): 50%

LLALSAYMV [GP11]
binding to gp120 on ELISA (absorbance) (HIV-1 JRFL gp120): significantly higher binding; also recorded: higher absorbance
affinity to gp120 (ranking) (purified gp120): highest affinity
cross clade HIV-1 inhibitory activity [1]: exhibited cross clade HIV-1 inhibitory activity

LVLLSSASS [GP5]
affinity to gp120 (ranking) (purified gp120): highest affinity

RRRNVPLIL (RRRNVPLIL-{GS linker-K(biotin)}; reading uncertain) [GP2]
binding to gp120 on ELISA (absorbance) (HIV-1 JRFL gp120): significantly higher binding; also recorded: higher absorbance

SSCSVRSSCRLYYSC [GP21]
binding to gp120 on ELISA (absorbance) (HIV-1 JRFL gp120): did not show any binding
HIV-1 inhibition (in words) [1]: did not show any HIV-1 inhibition

SYSFCPRRQ (also: GS linker and biotinylated lysine, end not given here) [GP3]
binding to gp120 on ELISA (absorbance) (HIV-1 JRFL gp120): significantly higher binding; also recorded: higher absorbance
affinity to gp120 (ranking) (purified gp120): highest affinity
inhibition of replication (HIV-1 IIIB): no inhibition
reduction in absorbance (recombinant CCR5 binding to gp120) [2]: 65.8%
HIV-1 inhibition (in words) [1]: greatest inhibition
cross clade HIV-1 inhibitory activity [1]: exhibited cross clade HIV-1 inhibitory activity
reduction in absorbance of peptide binding to gp120 (gp120; gp120 pre-blocked with V3 antibody): significant reduction
inhibition of HIV-1 BaL infection (HIV-1 BaL; 50 μM): no inhibitory effect
inhibition of HIV-1 BaL infection (HIV-1 BaL; 100 μM): 34.5%
inhibition of HIV-1 BaL infection (HIV-1 BaL; 250 μM): 54.7%
inhibition of replication (HIV-1 BaL; CCR5 tropic virus): exhibited inhibition

enfuvirtide
viral inhibition ([1]; positive control, 50 μM): 91.1%
